Our source for the IC50 values is patent publication US12145947B2, “Pyrimidine based modulators and uses thereof” (Quanta Therapeutics, Inc., priority 2022, dated 2024).

Common to all, as to type: binding
Experiment [1] addresses T1, w.t. NRAS/RAF1 (Homo sapiens, UniProt P01111).
T1 construct: His6-SUMO (N, cleaved yes); made in house; host or cells: E. coli (printed for KRAS and RAF1)
Description: Protein-protein interaction (PPI) HTRF assay NRAS/RAF1. Conditions: Table 3; wtNRAS/RAF1. The method, then:
(§1) Biotinylated KRAS wt and KRAS G12DNV proteins were expressed and purified in conditions similar to those previously reported (Tran, et al., 2021) (Zhang, et al., 2020). Briefly, KRAS (1-169) proteins were expressed in E. coli at 18° C. with an upstream TEV cleavage site (ENLFYQS (SEQ ID NO: 6)) followed an Avi tag sequence ([…] (SEQ ID NO: 7)). KRAS expression constructs contained both a His6 (SEQ ID NO: 8) and maltose-binding protein (MBP) tags at the N-terminus for Ni-NTA column purification prior to overnight TEV cleavage and MBP column purification. The avi-tagged NRAS expression construct contained both a His6 tag (SEQ ID NO: 8) and SUMO cleavage sige at the N-terminus for Ni-NTA column purification followed by His-ULPi digestion overnight. […]
(§2) When RAS proteins are in the active GTP-bound conformation, they bind the effector protein RAF1 at the N-terminus Ras-binding domain (RBD, residues 52-131) (Tran, et al., 2021). Homogenous time resolved fluorescence (HTRF) was used to monitor the interaction between wt or mutant KRAS and RAF1 or wt NRAS and RAFT. […] The intensity of the fluorescence signal emitted is proportional to binding between the two proteins. […] The fluorescence signal emitted was monitored at 665 nm and 615 nm using an Envision multimode plate reader. […]

The target of experiment [2] is T2, w.t.KRAS/RAF1 (Homo sapiens, UniProt P01116).
T2 construct: His6-MBP (N, cleaved yes); made in house; host or cells: E. coli
Description: Protein-protein interaction (PPI) HTRF assay w.t.KRAS/RAF1. The settings on record: Table 3; wtKRAS/RAF1. The method, then: as §1, §2
A general note: Time-resolved FRET reads energy transfer from a long-lived donor to a nearby acceptor.

The target of experiment [3] is T3, KRAS G12V/RAF1 (Homo sapiens, UniProt P01116, G12V).
T3 construct: His6-MBP (N, cleaved yes); made in house; host or cells: E. coli
Description: Protein-protein interaction (PPI) HTRF assay KRAS G12V/RAF1. The settings on record: Table 3; KRASG12V/RAF1. The method, then: as §1, §2

T1 sequence (P01111 with tags, fused parts or gaps): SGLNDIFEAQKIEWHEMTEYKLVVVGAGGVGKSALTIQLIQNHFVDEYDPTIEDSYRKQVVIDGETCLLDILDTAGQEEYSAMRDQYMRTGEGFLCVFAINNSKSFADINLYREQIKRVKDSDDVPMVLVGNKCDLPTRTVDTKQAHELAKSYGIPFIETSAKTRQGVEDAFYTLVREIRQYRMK
T3 sequence (P01116 with tags, fused parts or gaps isoform P01116-2 G12V): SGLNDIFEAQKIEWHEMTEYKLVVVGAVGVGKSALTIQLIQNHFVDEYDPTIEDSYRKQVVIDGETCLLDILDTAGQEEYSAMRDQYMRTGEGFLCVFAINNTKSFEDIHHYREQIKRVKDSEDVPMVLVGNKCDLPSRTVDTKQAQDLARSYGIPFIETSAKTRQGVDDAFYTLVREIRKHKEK
T2 sequence (P01116 with tags, fused parts or gaps isoform P01116-2): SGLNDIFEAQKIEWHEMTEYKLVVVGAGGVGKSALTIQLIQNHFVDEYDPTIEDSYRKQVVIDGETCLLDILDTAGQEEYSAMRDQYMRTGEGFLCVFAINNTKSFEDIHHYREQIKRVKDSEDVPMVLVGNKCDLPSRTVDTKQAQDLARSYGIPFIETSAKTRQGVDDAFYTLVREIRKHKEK

Usually IC50 stands for the concentration at which inhibition is half-maximal. Read a low IC50 as higher potency. As for `CN(C)C(=O)c1nn2c(c1Cl)CN(c1nc(OC[C@@]34CCCN3C[C@H](F)C4)nc(N3CC4(CCc5sc(N)c(C#N)c54)C3)c1C#N)CCC2` [Compound 2, 5-[6-(2-amino-3-cyano-spiro[5,6-dihydrocyclopenta[b]thiophene-4,3′-azetidine]-1′-yl)-5-cyano-2-[[(2R,8S)-2-fluoro-1,2,3,5,6,7-hexahydropyrrolizin-8-yl]methoxy]pyrimidin-4-yl]-3-chloro-N,N-dimethyl-4,6,7,8-tetrahydropyrazolo[1,5-a][1,4]diazepine-2-carboxamide], the values for the IC50 in experiment [1], in experiment [2] and in experiment [3] were greater than 100 µM, 1 to 10 µM and 1 to 10 µM, respectively.

On to `CN(C)C(=O)c1nn2c(c1Cl)CN(c1nc(OC[C@@]34CCCN3C[C@H](F)C4)nc(N3CC4(CCCc5sc(N)c(C#N)c54)C3)c1C#N)CCC2` [Compound 3, 5-[6-(2-amino-3-cyano-spiro[6,7-dihydro-5H-benzothiophene-4,3′-azetidine]-1′-yl)-5-cyano-2-[[(2R,8S)-2-fluoro-1,2,3,5,6,7-hexahydropyrrolizin-8-yl]methoxy]pyrimidin-4-yl]-3-chloro-N,N-dimethyl-4,6,7,8-tetrahydropyrazolo[1,5-a][1,4]diazepine-2-carboxamide], for which the IC50 in experiment [1] was greater than 100 µM; in experiment [3], 10 to 100 µM.
